Molecules are shown by their SMILES.

The data set can be described thus: Solubility of the compound of Formula (I) in aqueous media without surfactant. It is filed as physicochemical. Conditions: aqueous buffer; hydrochloric acid solution, buffer, and water without surfactant, 37° C., pH 1.0˜9.0. The method, then: The very low solubility limits its use in the development as a drug candidate. Chinese patent application 202010105909.9 reports a semi-solid capsule technology that can substantially increase the dissolution of the compound shown in Formula (I), but the capsule needs to be stored in a cool place below room temperature, not exceeding 15° C., specifically in a closed container at 2 to 8° C.

By solubility is commonly meant the concentration that dissolves in the medium under given conditions. A high value points to much dissolved substance. In turn, `Cc1cc(OC[P@@]2(=O)OCC[C@@H](c3cccc(Cl)c3)O2)cc(C)c1Cc1ccc(O)c(C(C)C)c1` [Formula (I) compound] yielded a solubility of less than 0.5 ng/mL.
